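Where inhibition never reached the appropriate level, the endpoint shown equals the highest concentration tested. Otherwise, values were interpolated linearly from a five-concentration, 48-hour dose response in 96-well plates. The concentration for full growth arrest is given as TGI.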
Legend:
Assay in all cases: inhibition of tumour cell growth, NCI panel, 48 h
[1] = tested on: UACC-257 melanoma
[2] = tested on: SR leukemia
[3] = tested on: CAKI-1 renal
[4] = tested on: NCI-H522 lung
[5] = tested on: RPMI-8226 leukemia
[6] = tested on: NCI/ADR-RES ovarian
[7] = tested on: HS 578T breast
[8] = tested on: HL-60(TB) leukemia
[9] = tested on: MDA-N
[10] = tested on: SK-MEL-5 melanoma
[11] = tested on: CCRF-CEM leukemia
[12] = tested on: NCI-H226 lung
[13] = tested on: NCI-H23 lung
[14] = tested on: SF-295 CNS
[15] = tested on: HCT-116 colon
[16] = tested on: K-562 leukemia
[17] = tested on: SK-OV-3 ovarian
[18] = tested on: NCI-H460 lung
[19] = tested on: SN12C renal
[20] = tested on: ACHN renal
[21] = tested on: OVCAR-4 ovarian
[22] = tested on: EKVX NSCLC
[23] = tested on: SF-268 CNS
[24] = tested on: SNB-75 CNS
[25] = tested on: SNB-19 CNS
[26] = tested on: COLO 205 colon
[27] = tested on: A498 renal
[28] = tested on: MOLT-4 leukemia
[29] = tested on: A549 NSCLC
[30] = tested on: T-47D breast
[31] = tested on: TK-10 renal
[32] = tested on: PC-3 prostate
[33] = tested on: M14 melanoma
[34] = tested on: HOP-92 NSCLC
[35] = tested on: SW-620 colon
[36] = tested on: HOP-62 NSCLC
[37] = tested on: HT29 colon
[38] = tested on: UO-31 renal
[39] = tested on: SF-539 CNS
[40] = tested on: LOX IMVI melanoma
[41] = tested on: 786-0 renal
[42] = tested on: OVCAR-3 ovarian
[43] = tested on: MCF7 breast
[44] = tested on: SK-MEL-2 melanoma
[45] = tested on: HCT-15 colon
[46] = tested on: U251 CNS
[47] = tested on: OVCAR-5 ovarian
[48] = tested on: RXF 393 renal
[49] = tested on: KM12 colon
[50] = tested on: IGROV1 ovarian
[51] = tested on: DU-145 prostate
[52] = tested on: OVCAR-8 ovarian
[53] = tested on: MDA-MB-231 breast
[54] = tested on: SK-MEL-28 melanoma
[55] = tested on: BT-549 breast
[56] = tested on: MALME-3M melanoma
[57] = tested on: MDA-MB-435
[58] = tested on: UACC-62 melanoma
[59] = tested on: HCC-2998 colon

C#CC1(O)C(COP(=O)(O)OC(COCCCCCCCCCCCCCCCCCC)COP(=O)(O)OCC2OC(n3cc(C)c(=O)[nH]c3=O)CC2N=[N+]=[N-])OC(n2ccc(N)nc2=O)C1O (configuration not stated)
TGI [1]: > 77.3 µM | TGI [2]: > 86.3 µM | TGI [3]: > 29 µM | TGI [4]: 1.33 µM | TGI [5]: 1.05 µM | TGI [6]: 16.6 µM | TGI [7]: 62.9 µM | TGI [8]: 16 µM | TGI [9]: 20.5 µM | TGI [10]: > 100 µM | TGI [11]: 18.9 µM | TGI [12]: > 91.2 µM | TGI [13]: 23.1 µM | TGI [14]: 10.7 µM | TGI [15]: > 100 µM | TGI [16]: > 71.4 µM | TGI [17]: 29.7 µM | TGI [18]: 17.6 µM | TGI [19]: > 100 µM | TGI [20]: > 72.5 µM | TGI [21]: 30.9 µM | TGI [22]: > 67.2 µM | TGI [23]: 21.7 µM | TGI [24]: 22.3 µM | TGI [25]: 17.3 µM | TGI [26]: 5.23 µM | TGI [27]: 17.1 µM | TGI [28]: 59.5 µM | TGI [29]: 20.2 µM | TGI [30]: > 77 µM | TGI [31]: 10.2 µM | TGI [32]: > 81.6 µM | TGI [33]: 26.1 µM | TGI [34]: 31.9 µM | TGI [35]: 33.4 µM | TGI [36]: > 74.2 µM | TGI [37]: > 50.9 µM | TGI [38]: 2.69 µM | TGI [39]: 14.1 µM | TGI [40]: 13 µM | TGI [41]: > 100 µM | TGI [42]: 28.7 µM | TGI [43]: 8.67 µM | TGI [44]: 2.44 µM | TGI [45]: > 47.8 µM | TGI [46]: 22 µM | TGI [47]: > 92.7 µM | TGI [48]: 30.6 µM | TGI [49]: 20.5 µM | TGI [50]: 5.05 µM | TGI [51]: > 100 µM | TGI [52]: > 42.2 µM | TGI [53]: 32.2 µM | TGI [54]: 22.4 µM | TGI [55]: 31 µM | TGI [56]: 36.8 µM | TGI [57]: 8.38 µM | TGI [58]: 18.8 µM

c1ccc(COC2NCCN2Cc2ccccc2)cc1 (configuration not stated)
TGI [1]: > 100 µM | TGI [2]: > 100 µM | TGI [3]: > 100 µM | TGI [4]: > 100 µM | TGI [5]: > 100 µM | TGI [6]: > 100 µM | TGI [7]: > 100 µM | TGI [8]: > 100 µM | TGI [9]: > 100 µM | TGI [10]: > 100 µM | TGI [11]: > 100 µM | TGI [12]: > 100 µM | TGI [13]: > 100 µM | TGI [14]: > 100 µM | TGI [15]: > 100 µM | TGI [16]: > 100 µM | TGI [17]: > 100 µM | TGI [18]: > 100 µM | TGI [19]: > 100 µM | TGI [20]: > 100 µM | TGI [21]: > 100 µM | TGI [22]: > 100 µM | TGI [23]: > 100 µM | TGI [24]: > 100 µM | TGI [25]: > 100 µM | TGI [26]: > 100 µM | TGI [27]: > 100 µM | TGI [28]: > 100 µM | TGI [29]: > 100 µM | TGI [30]: > 100 µM | TGI [31]: > 100 µM | TGI [32]: > 100 µM | TGI [33]: > 100 µM | TGI [34]: > 100 µM | TGI [35]: > 100 µM | TGI [36]: > 100 µM | TGI [37]: > 100 µM | TGI [38]: > 100 µM | TGI [39]: > 100 µM | TGI [40]: > 100 µM | TGI [41]: > 100 µM | TGI [42]: > 100 µM | TGI [43]: > 100 µM | TGI [44]: > 100 µM | TGI [45]: > 100 µM | TGI [46]: > 100 µM | TGI [47]: > 100 µM | TGI [48]: > 100 µM | TGI [49]: > 100 µM | TGI [50]: > 100 µM | TGI [51]: > 100 µM | TGI [52]: > 100 µM | TGI [53]: > 100 µM | TGI [54]: > 100 µM | TGI [55]: > 100 µM | TGI [56]: > 100 µM | TGI [57]: > 100 µM | TGI [58]: > 100 µM

CCOc1ccccc1/C=C(/C#N)C(N)=O
TGI [1]: > 100 µM | TGI [2]: > 100 µM | TGI [3]: > 100 µM | TGI [4]: > 100 µM | TGI [5]: > 100 µM | TGI [6]: > 100 µM | TGI [7]: > 100 µM | TGI [8]: > 100 µM | TGI [9]: 45.7 µM | TGI [10]: > 100 µM | TGI [11]: 73.7 µM | TGI [12]: > 100 µM | TGI [13]: > 100 µM | TGI [14]: > 100 µM | TGI [15]: > 100 µM | TGI [16]: > 100 µM | TGI [17]: > 100 µM | TGI [18]: > 100 µM | TGI [19]: > 100 µM | TGI [20]: > 100 µM | TGI [21]: > 100 µM | TGI [22]: > 100 µM | TGI [23]: > 100 µM | TGI [24]: > 100 µM | TGI [25]: > 100 µM | TGI [26]: > 100 µM | TGI [27]: > 100 µM | TGI [28]: > 100 µM | TGI [29]: > 100 µM | TGI [30]: > 100 µM | TGI [31]: > 100 µM | TGI [32]: > 100 µM | TGI [33]: > 100 µM | TGI [34]: > 100 µM | TGI [35]: > 100 µM | TGI [36]: > 100 µM | TGI [37]: > 100 µM | TGI [38]: > 100 µM | TGI [39]: > 100 µM | TGI [40]: > 100 µM | TGI [41]: > 100 µM | TGI [42]: > 100 µM | TGI [43]: > 100 µM | TGI [44]: > 100 µM | TGI [45]: > 100 µM | TGI [46]: > 100 µM | TGI [47]: > 100 µM | TGI [48]: > 100 µM | TGI [49]: > 100 µM | TGI [50]: > 100 µM | TGI [51]: > 100 µM | TGI [52]: > 100 µM | TGI [53]: > 100 µM | TGI [54]: > 100 µM | TGI [55]: > 100 µM | TGI [56]: > 100 µM | TGI [57]: 41.9 µM | TGI [58]: > 100 µM

COc1cccc(-c2nnc3c(-c4ccccc4)nc4ccccc4n23)c1
TGI [1]: > 100 µM | TGI [2]: > 54.8 µM | TGI [3]: > 86.6 µM | TGI [4]: 22.7 µM | TGI [5]: 26.4 µM | TGI [6]: > 100 µM | TGI [7]: > 100 µM | TGI [8]: 34 µM | TGI [9]: 14.2 µM | TGI [10]: 77.6 µM | TGI [11]: 39.1 µM | TGI [12]: > 100 µM | TGI [13]: > 100 µM | TGI [14]: > 100 µM | TGI [59]: 62.7 µM | TGI [15]: > 100 µM | TGI [16]: > 56.5 µM | TGI [17]: > 100 µM | TGI [18]: 98.7 µM | TGI [19]: > 100 µM | TGI [20]: > 100 µM | TGI [21]: > 100 µM | TGI [22]: > 100 µM | TGI [23]: > 100 µM | TGI [25]: > 100 µM | TGI [26]: > 100 µM | TGI [27]: 93.4 µM | TGI [28]: > 63.8 µM | TGI [29]: > 100 µM | TGI [30]: 17.3 µM | TGI [31]: > 100 µM | TGI [32]: > 100 µM | TGI [33]: > 100 µM | TGI [34]: > 100 µM | TGI [35]: > 100 µM | TGI [36]: > 100 µM | TGI [37]: > 100 µM | TGI [38]: > 100 µM | TGI [39]: > 100 µM | TGI [40]: > 100 µM | TGI [41]: > 100 µM | TGI [42]: > 100 µM | TGI [43]: > 100 µM | TGI [44]: 44.3 µM | TGI [45]: > 100 µM | TGI [46]: > 100 µM | TGI [47]: > 100 µM | TGI [48]: 94.7 µM | TGI [49]: > 43.7 µM | TGI [50]: > 100 µM | TGI [51]: > 100 µM | TGI [52]: > 100 µM | TGI [53]: > 100 µM | TGI [54]: > 100 µM | TGI [55]: > 100 µM | TGI [56]: > 83.7 µM | TGI [57]: 8.62 µM | TGI [58]: > 100 µM
